Literature values, collected in patent US20030118652A1 (priority 2001, published 2003).

Columns and labels:
[1] = (R)- versus (S)-bisoprolol
[2] = biological target: cytochrome P450 isoform CYP2D6 (Homo sapiens, UniProt P10635); details: (R)- versus (S)-bisoprolol; stated as 'it is believed'
[3] = following administration of racemic bisoprolol; (S)- versus (R)-bisoprolol

Chain of cytochrome P450 isoform CYP2D6 (P10635 whole entry, canonical isoform): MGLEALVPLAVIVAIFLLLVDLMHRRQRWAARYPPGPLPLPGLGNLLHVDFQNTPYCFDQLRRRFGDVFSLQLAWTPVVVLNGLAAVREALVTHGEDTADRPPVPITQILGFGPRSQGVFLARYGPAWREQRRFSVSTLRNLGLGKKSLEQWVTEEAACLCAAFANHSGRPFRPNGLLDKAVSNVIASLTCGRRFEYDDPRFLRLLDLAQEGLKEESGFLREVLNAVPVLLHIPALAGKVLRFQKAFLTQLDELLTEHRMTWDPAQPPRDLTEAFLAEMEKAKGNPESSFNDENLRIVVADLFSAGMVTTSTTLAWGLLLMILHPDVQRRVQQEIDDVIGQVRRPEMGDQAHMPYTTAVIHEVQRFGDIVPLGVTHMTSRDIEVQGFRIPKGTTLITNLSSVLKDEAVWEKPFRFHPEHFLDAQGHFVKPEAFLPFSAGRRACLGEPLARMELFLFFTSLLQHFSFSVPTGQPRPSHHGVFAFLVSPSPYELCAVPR

**Q.** For CC(C)NCC(O)COc1ccc(COCCOC(C)C)cc1 (racemic) [racemic bisoprolol, 1-[4-[[2-(1-methylethoxy)ethoxy]-methyl]phenoxy]-3-[(1-methylethyl)amino]-2-propanol], which “side effects on the peripheral circulation” value (Bailliart et al. 1987) is on record?
**A.** adverse side effects on the peripheral circulation

**Q.** And the bronchoconstrictor side effects (Dorow et al. 1986)?
**A.** bronchoconstrictor effects, including wheeziness and breathlessness

**Q.** What about the “effects on carbohydrate metabolism” value (Janka et al. 1986, patients with diabetes) of the same compound?
**A.** effects on carbohydrate metabolism that are deleterious to patients with diabetes

**Q.** What does the source list for CC(C)NC[C@@H](O)COc1ccc(COCCOC(C)C)cc1 [(R)-bisoprolol]?
**A.** rate of renal clearance [1]: greater; rate of oxidative metabolism by CYP2D6 [2]: greater rate

**Q.** With CC(C)NC[C@H](O)COc1ccc(COCCOC(C)C)cc1 [(S)-bisoprolol] as the compound, how does the elimination half-life [3] read?
**A.** slightly higher
